This note sets out measurements from patent publication US10888574B2, “Method for suppressing obesity, method for treating obesity, and method for promoting gene expression” (Kinjirushi Co., Ltd., priority 2017, dated 2021).

One assay deals with UCP1 gene. Description: Quantitative determination of expression level of UCP1 gene in brown adipocytes (real-time PCR, GAPDH internal standard). Format: cell-based. The settings on record: rat primary brown adipocytes; for Relative value of UCP1 gene expression, Average: control = 1.00, n=3; for UCP1 gene expression as compared with the control (in words): FIG. 1. On the procedure: (§1) In each example, as described below, brown adipocytes were cultured in a test medium to which each of various test substances has been added, and then quantitative determination of expression level of UCP1 gene and quantitative determination of lipid droplets by Oil Red 0 staining were performed.
(§2) Noradrenaline, isovitexin, and isosaponarin were each added to the maintenance medium. The final concentration in each media was set to 1 μmol/L for noradrenaline; 1 mmol/L, 100 μmol/L, and 10 μmol/L for isovitexin; and 1 mmol/L, 100 μmol/L, and 10 μmol/L for isosaponarin.
(§3) The brown adipocytes used in the test were those contained in the rat-derived primary brown adipocyte culture kit (manufactured by Cosmo Bio Co., Ltd., code number: BAT02). Using the above-described growth medium, the brown adipocytes were inoculated in the respective wells of a 24-well plate at a density of 3×10^4 cells/well. The brown adipocytes were cultured at 37° C. with 5% CO2 for 3 days in a CO2 incubator (multi-gas incubator, manufactured by Panasonic Healthcare Holdings Co., Ltd., product number: MCO-19MUVH). Next, the medium in each well was replaced with the differentiation-inducing medium, and culture was performed for 2 days in the CO2 incubator (5% CO2, 37° C.). Then, the medium in each well was replaced with the above-described maintenance medium, and culture was performed for 2 days in the CO2 incubator (5% CO2, 37° C.). Further, the medium in each well was replaced with the above-described maintenance medium again, and the brown adipocytes were cultured for 1 day in the CO2 incubator (5% CO2, 37° C.). Subsequently, analysis of gene expression and evaluation by Oil Red 0 staining were performed as below.
RNAs were recovered from the brown adipocytes using 0.2 mL per well of TRI Reagent (manufactured by Molecular Research Center, Inc., catalog number: TR118). Using 500 ng of each sample RNA, cDNA synthesis was performed using a cDNA synthesis kit (product name: SuperScript [registered trademark] VILO™ cDNA Synthesis Kit, manufactured by Thermo Fisher Scientific Inc., catalog number: 11754050). Real-time PCR was performed using a real-time PCR kit (product name: LightCycler [registered trademark] Taqman [registered trademark] Master, manufactured by Roche Applied Science, catalog number: 4735536) and a real-time PCR device (product name: LigthCycler [registered trademark] 480 System II, manufactured by Roche Diagnostics). Analysis of UCP1 gene expression was performed using GAPDH as an internal standard.
Primers and probes used in the test were as follows: • UCP1 primer, • forward primer: […] (SEQ ID No. 1, synthesized by Sigma-Aldrich Co. LLC), • reverse primer: tggccttcaccttggatct (SEQ ID No. 2, synthesized by Sigma-Aldrich Co. LLC), • probe: Universal ProbeLibrary probe #130 (manufactured by Roche Life Science Co. Ltd.), • GAPDH primer, • forward primer: […] (SEQ ID No. 3, synthesized by Sigma-Aldrich Co. LLC), • reverse primer: […] (SEQ ID No. 4, synthesized by Sigma-Aldrich Co. LLC), and
probe: Universal ProbeLibrary probe #80 (manufactured by Roche Life Science Co. Ltd.).
The number of experiments performed was three. […] The significant difference is indicated as “<0.05” when the significance level of the t-test was 5%, and as “<0.01” when the significance level was 1%.
On the technique in general: Real-time PCR tracks product formation cycle by cycle.

The next assay deals with brown adipocytes. Description: Quantitative determination of lipid droplets by Oil Red O staining in brown adipocytes. The assay is classed as cell-based, rat. The conditions noted are these: for Quantity of lipid droplets produced, Average: relative absorbance at 540 nm, control = 100, n=3; for Quantity of lipid droplets produced compared with medium without the substance (in words): rat primary brown adipocytes, FIG. 2. The method, then: as §1, §2, §3
Lipid droplets in the cell cultured as described in the above item (2) were quantitatively determined through the steps below using Lipid Assay Kit (manufactured by Cosmo Bio Co., Ltd., code number: AK09F).
Step 2-1. Fixative solution was prepared by mixing the following ingredients together: • 37% formaldehyde solution (formalin stock solution): 100 mL, • purified water: 900 mL, • sodium dihydrogen phosphate monohydrate (NaH2PO4·H2O): 4 g, and • disodium hydrogen phosphate, anhydrous (Na2HPO4): 6.5 g.
Step 2-2. The culture solution was removed from the well plate subjected to the culture operation in the above “(2) Culture of brown adipocytes”. Then, each well was washed once with 500 μL per well of PBS.
Step 2-3. 500 μL per well of the fixative solution prepared in Step 2-1 was added to each well, and the well plate was left at rest overnight at room temperature.
Step 2-4. After the immobilization, washing of each well with 500 μL per well of purified water was performed.
Step 2-5. Undiluted Oil Red 0 solution in the kit and purified water were mixed together at a ratio of 6:4 (volume ratio) to obtain a mixed solution, and the mixed solution was left at rest at room temperature for 10 to 15 minutes. Then, the mixed solution was filtered through a membrane filter having pores with a pore diameter of 0.5 to 1.0 μm. The filtrate was used as Oil Red 0 solution.
Step 2-6. 500 μL of the above-described Oil Red 0 solution was dispensed into each well, and the well plate was left at rest at room temperature for 15 minutes.
Step 2-7. After that, the Oil Red 0 solution was removed from the well, and each well was washed with purified water three times or more. Such washing was performed thoroughly until the used purified water becomes clear.
Step 2-8. 500 μL of solvent for extraction in the kit was added into the dried well, and pigments were eluted. 0.1 mL of the eluate with the pigments eluted therein was dispensed into each well of a 96-well plate, and absorbance at a wavelength of 540 nm was measured with a micro-plate reader (Infinite [registered trademark] M200 PRO, manufactured by TECAN). […]

Structures are written as SMILES.

On to `O=c1cc(-c2ccc(O)cc2)oc2cc(O)c([C@@H]3O[C@H](CO)[C@@H](O)[C@H](O)[C@H]3O)c(O)c12` [Isovitexin], for which the “Relative value of UCP1 gene expression, Average” value (from here on “Relative value”) is 1.30 in the assay on UCP1 gene (final concentration 10 μmol/L), 1.30 in the assay with UCP1 gene (final concentration 100 μmol/L) and 1.45 in the assay with UCP1 gene (final concentration 1 mmol/L). Also, the “UCP1 gene expression as compared with the control (in words)” value in the assay with UCP1 gene is “significant increase in UCP1 gene expression”. Moreover, the “Quantity of lipid droplets produced, Average” value with brown adipocytes (concentration 10 μmol/L) is given as 84.8%; in the assay on brown adipocytes (concentration 100 μmol/L) it was 83.3%; with brown adipocytes (concentration 1 mmol/L), 77.8%. Further, the “Quantity of lipid droplets produced compared with medium without the substance (in words)” value in the assay with brown adipocytes is “quantity of lipid droplets produced was smaller”.
Take `NC[C@H](O)c1ccc(O)c(O)c1` [Noradrenaline, reference compound]: the “Relative value” value in the assay with UCP1 gene (final concentration 1 μmol/L) was found to be 1.38.
`O=c1cc(-c2ccc(OC3OC(CO)C(O)C(O)C3O)cc2)oc2cc(O)c(C3OC(CO)C(O)C(O)C3O)c(O)c12` (centres unmarked) [Isosaponarin]: the “Relative value” value in the assay with UCP1 gene (final concentration 10 μmol/L) is listed as 1.17; with UCP1 gene (final concentration 100 μmol/L), 1.30; in the assay with UCP1 gene (final concentration 1 mmol/L) it was 1.18. In addition, the “UCP1 gene expression as compared with the control (in words)” value in the assay on UCP1 gene is reported as “significant increase in UCP1 gene expression”. The “Quantity of lipid droplets produced, Average” value in the assay on brown adipocytes (concentration 10 μmol/L) is given as 104.0%; with brown adipocytes (concentration 100 μmol/L), 97.7%; with brown adipocytes (concentration 1 mmol/L), 98.9%. In addition, in the assay on brown adipocytes, the “Quantity of lipid droplets produced compared with medium without the substance (in words)” value is “quantity of lipid droplets produced was smaller”.
